Experiments:
[1] = test system: BT-549 TNBC cells; assay: 11-day colony formation assay, BT-549; format: cell-based; conditions: 5, 10 or 20 μM, 11 days
Experimental: (§1) Inhibition of SHP2 has been reported to inhibit the growth of cancer cells including Kasumi-1 acute myeloid leukemia (AML) and KYSE-520 esophageal cancer cells ([30]). […] Thus, we treated two TNBC cell lines, BT-549 and MDA-MB-468, with SBI-4668 or the SHP2 allosteric inhibitor SHP099 at various concentrations and determined cell viability after 72 h, compared with the vehicle control (Fig. 4C). […] Next, we performed an 11-day colony formation assay with TNBC cells treated with SBI-4668 or SHP099 at 5, 10, or 20 μM (Fig. 4D).
(§2) MDA-MB-468 and […] triple-negative breast cancer cells were maintained in Dulbecco's modified Eagle's medium + 10% FBS supplemented with 1× penicillin–streptomycin/L-glutamine (Omega Scientific). About 1500 cells (in 300 μl) were seeded per well of a standard 24-well tissue culture plate (Falcon) and allowed to adhere for 24 h, before the addition of compound(s) as described. After a further 96 h, media were replaced with fresh media containing the same test compounds and concentrations. After 11 days, media were removed, and cells stained with 0.5% crystal violet (in 20% methanol; Sigma) for 20 min with agitation at 80 rpm. Stain was removed, and plates with stained cells were washed by being submerged in excess deionized water and allowed to air dry overnight before imaging.

[2] = test system: MDA-MB-468 TNBC cells; assay: 11-day colony formation assay, MDA-MB-468; format: cell-based; conditions: 5, 10 or 20 μM, 11 days
Experimental: as §1, §2

O=C(Nc1ccccc1)c1cc(-c2ccc(/C=C3\Sc4ccccc4C3=O)o2)ccc1O [SBI-4668, (Z)-2-Hydroxy-5-(5-((3-oxobenzo[b]thiophen-2(3H)-ylidene)methyl)furan-2-yl)-N-phenylbenzamide]
colony formation, BT-549 [1]: undetectable | colony formation, MDA-MB-468 [2]: undetectable

From publication PMC8760490, “Discovery of novel furanylbenzamide inhibitors that target oncogenic tyrosine phosphatase SHP2 in leukemia cells” (The Journal of Biological Chemistry, 2021)
